Source: patent publication US20230285570A1, “THERAPEUTICALLY USEFUL CURE-PRO MOLECULES FOR E3 LIGASE MEDIATED DEGRADATION OF PROTEINS, AND METHODS OF MAKING AND USING THEM” (CORNELL UNIVERSITY, priority 2020, published 2023)
“Also recorded” adds a separate entry of the source.

Experiments:
Assay type in all cases: cell-based
BRD4 [1] = target: T1, BRD4 (Homo sapiens, UniProt O60885); assay: Summary of BRD4 degradation by CURE-PRO pairs, estimated from Western Blot or WES; design: endogenous in cells; conditions: for Degradation of BRD4, combination with CRBN ligand 8048: Table 4, aromatic 1,2-diol BRD4 ligand + 8048
Description: (§1) Namalwa, Ramosm HeLa, MCF7, or HT29 HCT116 cells (2.5-3×10^6) were treated for 24 hours with the indicated compounds solubilized in DMSO. The cells were washed in ice-cold PBS and were then lysed in RIPA lysis buffer (150 mM NaCl, 5 mM EDTA, 1% NP-40, 0.5% sodium deoxycholate, 0.1% SDS, 50 mM Tris, pH 8.0.) with Roche protease inhibitor complete cocktail and phosphatase inhibitors (10 mM sodium fluoride, 10 mM sodium pyrophosphate, 1 mM sodium orthovanadate and 20 mM β-glycerophosphate). The total protein concentrations were determined by Bradford Protein Assay (Pierce) and 10-20 μg of protein was loaded onto 4-15% Tris-Glycine gradient gels (Biorad). After standard gel electrophoresis, the separated proteins were transferred to PVDF membrane by wet transfer. The immunoblots were then blocked for 1 hour in 5% skim milk in TBST or 5% BSA in TBST, according to manufacturer's instructions, before an overnight incubation at 4° C. with indicated antibodies and membranes. Membranes were then incubated with the appropriate horseradish peroxidase-conjugated secondary antibodies (1:5,000 dilution) for 1 h at room temperature and the bands were visualized using the Clarity Max Western ECL Substrate (Biorad) and the ChemiDoc Imaging System (Biorad). Signal was detected with ECL Western Blotting Substrate (Pierce) and X-ray film processed with a Konica SRX-101 X-ray film processor or captured by Bio-Rad's Chemidoc Imaging system.
(§2) WES Simple analysis was performed on WES system (ProteinSimple-Biotechne) according to the manufacturer's instructions. Total protein concentrations of cell lysates were determined by the Pierce BCA kit (Thermo Fisher). 3 μL of 0.3 μg/μL of the protein lysate was loaded onto a 12- to 230-kDa WES assay plate (ProteinSimple) where 300 nL sample was withdrawn through a capillary, subjected to electrophoretic separation of proteins by size, and followed by the simultaneous, HRP-based detection of proteins using the Anti-Rabbit Detection Module (Proteinsimple: #DM-001). The electropherograms were checked then the automatic peak detection was manually corrected if it was required.
(§3) A black check mark indicates efficacy of 30% to 70% or higher protein degradation.

BRD4 [2] = target: T1, BRD4; assay: CURE-PRO-mediated BRD4 degradation in HeLa cells, Western blot; design: endogenous in cells; host or cells: HeLa; conditions: 24 h
Description: All cell lines were purchased from ATCC or DSMZ and grown at 37° C. with 5% CO2. Human HeLa cells were cultured in complete growth medium (Dulbecco's modified Eagle's medium (DMEM) supplemented with 10% FBS); MCF7 cells were cultured in complete growth medium (Dulbecco's modified Eagle's medium (DMEM) supplemented with 10% FBS and 0.01 mg/ml human recombinant insulin (Sigma Aldrich); Namalwa and Ramos cells were cultured in complete growth medium (RPMI 1640 medium supplemented with 10% FBS); HCT116 and HT29 cells were cultured in complete growth medium (McCoy's 5a Medium supplemented with 10% FBS). For cellular degradation of BRD4 studies cells were seeded in a 12-well plate at 70-80% confluency, allowed to attach overnight, and incubated with the indicated compounds for the indicated time. When indicated, a 15-minute pretreatment with 10 μM pomalidomide, 10 μM VHL298, 10 μM Nutlin3a, 1 μM MG-132 or 1 μM Carfilzomib was performed before the addition of CURE-PROs. For washout studies, after CURE-PRO treatment, media was aspirated and incubated with complete medium for the indicated time before lysis.
as §1
HeLa cells (2.5×10^6) were treated for 24 hours with the sample compounds solubilized in DMSO. Compounds were added at 1-10 μM each. Standardized protein samples were electrophoresed and imaged as described in the immunoblotting description above. FIGS. 6-18 depicts the CURE-PRO-mediated BRD4 degradation for BRD monomers (JQ1 derivatives comprising of catechol linkers), and CRBN ligands, 8048 and 8049 (pomalidomide derivatives comprising boronic acid linkers) combined in a 1:1 ratio.
HeLa cells (2.5×10^6) were treated for 24 hours with the compounds solubilized in DMSO. The compounds were added at 10 μM each. Standardized protein samples were electrophoresed and imaged as described in the immunoblotting section above. FIGS. 23-27 depicts the CURE-PRO-mediated BRD4 degradation for BRD monomers (JQ1 derivatives comprising of boronic acid linkers), and CRBN ligands, 8046, 8047 and 8066 (pomalidomide derivatives comprising diol linkers) combined in a 1:1 ratio.
HeLa cells (2.5×10^6) were treated for 24 hours with the compounds solubilized in DMSO. Compounds were added at 10 μM and 100 μM each. Standardized protein samples were electrophoresed and imaged as described in the immunoblotting section above.
HeLa cells (2.5×10^6) were treated for 24 hours with the compounds solubilized in DMSO. Compounds were added at 1 nM-1 μM each. […]

c-MYC = c-MYC (Homo sapiens, UniProt P01106); assay: Summary of C-MYC degradation by CURE-PRO pairs, estimated from Western Blot or WES; design: endogenous in cells; host or cells: HT29; conditions: for Degradation of C-MYC, combination with CRBN ligand 8066: Table 7, aryl-boronic acid MYC ligand + 8066
Description: as §1, §2, §3

[3] = BRD4 monomer alone, HeLa, 1-10 μM
[4] = co-treated 1:1 with CRBN ligand 8048, HeLa, 1-10 μM each
[5] = co-treated 1:1 with CRBN ligand 8049, HeLa, 1-10 μM each

Chain of c-MYC (P01106 whole entry): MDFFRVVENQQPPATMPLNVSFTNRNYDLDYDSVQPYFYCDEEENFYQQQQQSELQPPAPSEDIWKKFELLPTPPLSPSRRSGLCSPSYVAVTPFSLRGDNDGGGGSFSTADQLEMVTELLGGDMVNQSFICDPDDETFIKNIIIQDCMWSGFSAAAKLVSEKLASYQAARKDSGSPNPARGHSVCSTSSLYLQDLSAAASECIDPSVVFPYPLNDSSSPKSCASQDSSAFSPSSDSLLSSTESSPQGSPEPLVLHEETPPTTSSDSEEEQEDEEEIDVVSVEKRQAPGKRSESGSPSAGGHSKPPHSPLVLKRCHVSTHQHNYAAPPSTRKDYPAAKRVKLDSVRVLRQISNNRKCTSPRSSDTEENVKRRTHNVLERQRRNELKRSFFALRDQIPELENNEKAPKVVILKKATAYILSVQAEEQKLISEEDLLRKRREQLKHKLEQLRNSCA

| SMILES | Degradation of BRD4, combination with CRBN ligand 8048 (BRD4 [1]) | BRD4 degradation (BRD4 [2]; [3]) | BRD4 degradation (BRD4 [2]; [4]) | BRD4 degradation (BRD4 [2]; [5]) | Degradation of BRD4, combination with CRBN ligand 8049 (BRD4 [1]; Table 4, aromatic 1,2-diol BRD4 ligand + 8049) | Degradation of BRD4, combination with MDM2 ligand 8312 (BRD4 [1]; Table 5, aromatic 1,2-diol BRD4 ligand + 8312) | Degradation of C-MYC, combination with CRBN ligand 8046 (c-MYC; Table 7, aryl-boronic acid MYC ligand + 8046) | Degradation of C-MYC, combination with CRBN ligand 8066 (c-MYC) |
| --- | --- | --- | --- | --- | --- | --- | --- | --- |
| COc1ccc2c(c1)C(c1ccc(Cl)cc1)=N[C@@H](CC(=O)NCCNC(=O)c1ccc(O)c(O)c1)c1nnc(C)n1-2 [BRD-N1] | √ (A black check mark indicates efficacy of 30% to 70% or higher protein degradation) | there is no degradation of BRD4 | causes degradation of BRD4; also recorded: Degradation is noted | – | – | – | – | – |
| COc1ccc2c(c1)C(c1ccc(Cl)cc1)=N[C@@H](CC(=O)NCCCCNC(=O)c1ccc(O)c(O)c1)c1nnc(C)n1-2 [BRD-N5] | √ (A black check mark indicates efficacy of 30% to 70% or higher protein degradation) | there is no degradation of BRD4 | causes degradation of BRD4; also recorded: Degradation is noted | no evidence of BRD4 degradation | – | – | – | – |
| COc1ccc2c(c1)C(c1ccc(Cl)cc1)=N[C@@H](CC(=O)NCCCCNC(=O)c1cccc(O)c1O)c1nnc(C)n1-2 [BRD-N6] | √ (A black check mark indicates efficacy of 30% to 70% or higher protein degradation) | there is no degradation of BRD4 | causes degradation of BRD4; also recorded: Degradation is noted | no evidence of BRD4 degradation | – | – | – | – |
| CCNC(=O)C[C@@H]1N=C(c2ccc(Cl)cc2)c2cc(OCCCCC(=O)Nc3ccc(O)c(O)c3)ccc2-n2c(C)nnc21 [BRD-N22, 5-(((4S)-6-(4-chlorophenyl)-4-(2-(ethylamino)-2-oxoethyl)-1-methyl-4H-benzo[f][1,2,4]triazolo[4,3-a][1,4]diazepin-8-yl)oxy)-N-(3,4-dihydroxyphenyl)pentanamide] | √ (A black check mark indicates efficacy of 30% to 70% or higher protein degradation) | there is no degradation of BRD4 | causes degradation of BRD4; also recorded: Degradation is noted | no evidence of BRD4 degradation | – | – | – | – |
| COc1ccc2c(c1)C(c1ccc(Cl)cc1)=N[C@@H](CC(=O)NCCNC(=O)Cc1ccc(O)c(O)c1)c1nnc(C)n1-2 [BRD-N30] | √ (A black check mark indicates efficacy of 30% to 70% or higher protein degradation) | there is no degradation of BRD4 | causes degradation of BRD4 | – | – | – | – | – |
| CCNC(=O)C[C@@H]1N=C(c2ccc(Cl)cc2)c2cc(OCCOCCNC(=O)c3ccc(O)c(O)c3)ccc2-n2c(C)nnc21 [BRD-N38, N-(2-(2-(((4S)-6-(4-chlorophenyl)-4-(2-(ethylamino)-2-oxoethyl)-1-methyl-4H-benzo[f][1,2,4]triazolo[4,3-a][1,4]diazepin-8-yl)oxy)ethoxy)ethyl)-3,4-dihydroxybenzamide] | √ (A black check mark indicates efficacy of 30% to 70% or higher protein degradation) | there is no degradation of BRD4 | causes degradation of BRD4 | – | – | – | – | – |
| COc1ccc2c(c1)C(c1ccc(Cl)cc1)=N[C@@H](CC(=O)NCCOCCOCCOCCNC(=O)c1ccc(O)c(O)c1)c1nnc(C)n1-2 [BRD-N44] | √ (A black check mark indicates efficacy of 30% to 70% or higher protein degradation) | there is no degradation of BRD4 | causes degradation of BRD4 | – | – | – | – | – |
| CCNC(=O)C[C@@H]1N=C(c2ccc(Cl)cc2)c2cc(-c3ccc4cc(O)c(O)cc4c3)ccc2-n2c(C)nnc21 [BRD-N67] | √ (A black check mark indicates efficacy of 30% to 70% or higher protein degradation) | there is no degradation of BRD4 | causes degradation of BRD4 | causes degradation of BRD4 | √ (A black check mark indicates efficacy of 30% to 70% or higher protein degradation) | – | – | – |
| COc1ccc2c(c1)C(c1ccc(Cl)cc1)=N[C@@H](CC(=O)NCCOCCOCCOCCOCCNC(=O)c1ccc(O)c(O)c1)c1nnc(C)n1-2 [BRD-N69] | √ (A black check mark indicates efficacy of 30% to 70% or higher protein degradation) | there is no degradation of BRD4 | causes degradation of BRD4; also recorded: Degradation is noted | no evidence of BRD4 degradation | – | – | – | – |
| CCNC(=O)C[C@@H]1N=C(c2ccc(Cl)cc2)c2cc(OCCOCCOCCOCCOCCOCCNC(=O)c3ccc(O)c(O)c3)ccc2-n2c(C)nnc21 [BRD-N70, N-(17-(((4S)-6-(4-chlorophenyl)-4-(2-(ethylamino)-2-oxoethyl)-1-methyl-4H-benzo[f][1,2,4]triazolo[4,3-a][1,4]diazepin-8-yl)oxy)-3,6,9,12,15-pentaoxaheptadecyl)-3,4-dihydroxybenzamide] | √ (A black check mark indicates efficacy of 30% to 70% or higher protein degradation) | – | causes degradation of BRD4; also recorded: Degradation is noted | no evidence of BRD4 degradation | – | – | – | – |
| CCNC(=O)C[C@@H]1N=C(c2ccc(Cl)cc2)c2cc(OCCOCCOCCOCCOCCOCCNC(=O)c3cccc(O)c3O)ccc2-n2c(C)nnc21 [BRD-N71, N-(17-(((4S)-6-(4-chlorophenyl)-4-(2-(ethylamino)-2-oxoethyl)-1-methyl-4H-benzo[f][1,2,4]triazolo[4,3-a][1,4]diazepin-8-yl)oxy)-3,6,9,12,15-pentaoxaheptadecyl)-2,3-dihydroxybenzamide] | √ (A black check mark indicates efficacy of 30% to 70% or higher protein degradation) | there is no degradation of BRD4 | causes degradation of BRD4; also recorded: Some selectivity for BRD-N71 and 8048 is noted | no evidence of BRD4 degradation | – | √ (A black check mark indicates efficacy of 30% to 70% or higher protein degradation) | – | – |
| CCc1ccc(/C=C2\SC(=O)N(CCCc3cccc(B(O)O)c3)C2=O)cc1 [MYC- E02] | – | – | – | – | – | – | √ (A black check mark indicates efficacy of 30% to 70% or higher protein degradation) | √ (A black check mark indicates efficacy of 30% to 70% or higher protein degradation) |
| O=C(NCc1ccc(B(O)O)cc1)c1cccc(Nc2ccc([N+](=O)[O-])c3nonc23)c1 [MYC- E09] | – | – | – | – | – | – | – | √ (A black check mark indicates efficacy of 30% to 70% or higher protein degradation) |
